Laboratory results published in patent EP1171146B1, “PHARMACEUTICAL CO[…] GINKGO BILOBA EXTRACT USEFUL FOR TREATING DEMENTIA” (priority 1999, dated 2000).

Key:
[1] = system: cerebral cortex of ischemic rats; assay: Energy metabolites in the cerebral cortex in partial ischemia; settings: 3-week treatment, mean±S.E. (n=6)
[2] = system: SOD(Superoxide dismutase); assay: SOD activity after partial ischemia and reperfusion; assay type: in vivo, Sprague-Dawley rats; settings: cerebral cortex; 30 min ischemia, 3 hours reperfusion; 3-week treatment; mean±S.E. (n=6)
Protocol: The supernatant was used as sample.
Previously, a test tube containing 2.3 mℓ of phosphate buffer with pH 7.8, 300 µℓ of 0.5 mM Na-xanthine, 100 µℓ of 50 µm K-cyanide and 100 µℓ of 2.4 mM Na-deoxycholate was prepared and kept in a water bath of 25 °C. To this test tube, 300 µℓ of 0.1 mM ferricytochrome and sample were added.
Then. the solution was transferred to a cell, 100 µℓ of xanthine oxidase was added, a sealing tape was placed on the cell and, while closing well with fingers, the cell was carefully shaken to mix. Changes in absorbance were measured and recorded for one minute at the wavelength of 550 nm.

[3] = system: cerebral cortex of ischaemic rats; assay: Dopamine and its metabolites concentrations in partial ischemia (HPLC-ECD); settings: vs control, Figure 3
[4] = system: rats with memory loss induced by scopolamine; assay: Passive avoidance response test (step-through shuttle box); assay type: in vivo, Sprague-Dawley rats; settings: selegiline 2 mg/kg/day and/or Ginkgo biloba extract 48 mg/kg/day p.o. for 3 weeks; scopolamine 6 mg/kg; Figure 1
Protocol: (§1) To evaluate effects on memory and learning functions, rats of each group were challenged with injection of scopolamine, a drug which cause memory loss and then, subjected to the following tests.
Rats of each group were previously subjected to the adaptation training and subsequent exercises in a shuttle box of step-through type. In the real experiment, scopolamine at a dose of 6 mg/kg was given intraperitoneally and, after 30 minutes, passive avoidance responses were determined. Longer latency in response time indicate improved memory and learning fuctions.
In a step-through passive avoidance test, rats of both normal and test group treated with drugs for 3 weeks were put in a shuttle box and tested for latency time required for avoidance response after being given with scopolamine injection to induce memory loss and the results are shown in Figure 1.

MDA(Malondialdehyde) = assay: Malondialdehyde measurement after partial ischemia and reperfusion; settings: cerebral cortex; 30 min ischemia, 3 hours reperfusion; 3-week treatment; mean±S.E. (n=6)
[5] = system: glutathione(GSH) peroxidase; assay: Glutathione peroxidase activity after partial ischemia and reperfusion; settings: cerebral cortex; 30 min ischemia, 3 hours reperfusion; 3-week treatment; mean±S.E. (n=6)
[6] = system: pyramidal neuronal cells at CA1 (Ammon's horn) area of the hippocampus; assay: Histopathological examination of hippocampus after complete ischemia and reperfusion (cresyl-violet staining); assay type: in vivo, Mongolian gerbil
Protocol: Gerbils of both control and test groups were anesthetized with injection of pentobarbital sodium at a dose of 50 mg/kg and the carotid arteries on both sides were closed for 5 minutes to induce complete ischemia. After 7 days from initiation of reperfusion, tissues were examined by means of cresyl-violet staining.
Tissue examination under cresyl-violet staining mentioned above was done as follows. Excised cerebellum was cut into slices using sliding microtome and the slices were treated sequentially with xylene and alcohol for five minutes and finally, soaked into distilled water for another 5 minutes. Then, the slice was stained with cresyl-violet which had been prepared in advance.
After staining, the slice was washed one time for 30 minutes with flowing water, followed by dehydrating in alcohol and subsequent two time washings with xylene for 10 minutes. Then, a cover glass was placed on and the specimen was examined under optical microscope.
In the cases of complete ischemia and subsequent reperfusion, biochemical changes will appear initially but some morphological changes may result after a few days. […]

[7] = system: rats with memory loss induced by scopolamine; assay: 8-arm radial maze test; assay type: in vivo, Sprague-Dawley rats; settings: selegiline 2 mg/kg/day and/or Ginkgo biloba extract 48 mg/kg/day p.o. for 3 weeks; scopolamine 6 mg/kg; compared with control group; Figure 2
Protocol: as §1
According to 01 ton and Samuelson methods[J. Exp. Psychol. Anim. Behav. Proc. 2, 97(1976)], 8-arm radial maze test system was used. That is, rats of each group were placed in the center of the eight 65-cm arms of the maze test system, which are radially stretched, and 45 mg each of pellet type feed was placed at the end of each arm. Rats were trained to visit the arm-ends to get the pellet type feeds. In real experiment, rats were pre-treated with intraperitoneal injection of scopolamine at a dose of 6 mg/kg as a challenge and subjected to the test after 30 minutes from injection.
Test was repeated for fifty(50) times. Smaller visit errors indicate gained improvements in memory and learning functions.
In order to induce memory loss, scopolamine was injected to the rats of both normal and test groups which received drug treatment for 3 weeks and then the rats were placed in the center of the 8-arm maze test system to record numbers of visit errors to the respective arms.

With `C#CCN(C)[C@H](C)Cc1ccccc1` [Selegiline] as the compound, how does the ATP [1] read?
Its ATP is 1.12±0.04 µmol /g wet wt.

And the Glucose [1]?
The Glucose was 1.21 ±0.02 µmol/g wet wt.

And the Lactate [1]?
Its Lactate is 5.42±0.15 µmol/g wet wt.

And the Pyruvate [1]?
Its Pyruvate is 0.10±0.011 µmol/g wet wt.

What about the SOD activity [2] of the same compound?
The SOD activity was 0.42±0.04 units/mg protein.

And the content of dopamine ([3]; 3-week p.o. selegiline 2 mg/kg/day and/or Ginkgo biloba extract 48 mg/kg/day)?
Its content of dopamine is “significant increases”.

And the “contents of HVA(Homovanillic acid)” value ([3]; 3-week p.o. treatment)?
The value was “decreased significantly”.

What about the “avoidance response time (latency)” value [4] of the same compound?
The value was “significant increase”.

What about the MDA (MDA(Malondialdehyde)) of the same compound?
The MDA was 1.80±0.22 nmol/mg protein.

And the GSH peroxidase [5]?
The GSH peroxidase was 2.04±0.22 units/mg protein.

What about the “protection of pyramidal cells at CA1 Ammon's horn site of the hippocampus” value ([6]; 5 min complete ischemia, 7 days reperfusion, 3-week treatment, Figures 4e-4j) of the same compound?
The value was “did not show any effects of significance for protection of the cells”.

What about the “Nerve Cell Density” value ([6]; CA1 site of the hippocampus, mean ± standard error (n=3-4)) of the same compound?
Its value is 45±10 /mm.

What about the visit errors [7] of the same compound?
Its visit errors is “tended to decrease”.
